# In patent US20070259914A1, “Novel Piperidine Derivates as Modulators of Chemokine Receptor Ccr5” (priority 2004, published 2007):
# Target: recombinant human CCR5 receptor (Homo sapiens, UniProt P51681)
# Test: MIP-1α radioligand binding assay (scintillation proximity, CHO cell membranes)
# Details: displacement of 0.1 nM iodinated MIP-1α from membranes of Chinese hamster ovary cells expressing recombinant human CCR5; average if tested more than once
# Procedure: The ability of compounds to inhibit the binding of MIP-1α was assessed by an in vitro radioligand binding assay. Membranes were prepared from Chinese hamster ovary cells which expressed the recombinant human CCR5 receptor. These membranes were incubated with 0.1 nM iodinated MIP-1α, scintillation proximity beads and various concentrations of the compounds of the invention in 96-well plates. The amount of iodinated MIP-1α bound to the receptor was determined by scintillation counting.
# In Table II the results are presented as Pic50 values. […] If a as tested more than once then the data below is an average of the probative tests
# Chain of recombinant human CCR5 receptor (P51681 whole entry): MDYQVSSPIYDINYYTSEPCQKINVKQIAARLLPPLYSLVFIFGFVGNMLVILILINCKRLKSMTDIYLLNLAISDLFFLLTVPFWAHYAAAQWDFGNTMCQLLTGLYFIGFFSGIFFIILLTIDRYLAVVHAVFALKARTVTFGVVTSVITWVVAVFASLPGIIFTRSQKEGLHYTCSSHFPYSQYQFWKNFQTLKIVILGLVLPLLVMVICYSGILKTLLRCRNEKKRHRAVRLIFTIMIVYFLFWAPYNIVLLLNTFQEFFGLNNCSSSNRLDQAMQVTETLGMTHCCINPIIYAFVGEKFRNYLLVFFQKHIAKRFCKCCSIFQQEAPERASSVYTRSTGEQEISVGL
row,SMILES,IC50
1,"CCN(C(=O)Cc1ccc(S(C)(=O)=O)cc1)C1CCN(CC[C@@H](c2cc(F)cc(F)c2)C2CCN(S(C)(=O)=O)CC2)CC1 [Compound 1, N-(1-{(3R)-3-(3,5-difluorophenyl)-3-[1-(methylsulfonyl)piperidin-4-yl]propyl}piperidin-4-yl)-N-ethyl-2-[4-(methylsulfonyl)phenyl]-acetamide]",0.316 nM
2,CCN(C(=O)NCc1ccc(S(C)(=O)=O)cc1)C1CCN(CC[C@@H](c2cc(F)cc(F)c2)C2CCN(S(C)(=O)=O)CC2)CC1 [Compound 2],0.501 nM
3,CCN(C(=O)Cc1ccc(S(C)(=O)=O)cc1)C1CCN(CC[C@@H](c2cccc(C(F)(F)F)c2)C2CCN(S(C)(=O)=O)CC2)CC1 [Compound 3],3.55 nM
4,CS(=O)(=O)c1ccc(CC(=O)N(C2CC2)C2CCN(CC[C@@H](c3cc(F)cc(F)c3)C3CCN(S(C)(=O)=O)CC3)CC2)cc1 [Compound 4],1.58 nM
